In assay [1] the target is Monoamine transporters; serotonin & dopamine (Homo sapiens) (UniProt P31645+Q01959). Put plainly: Selectivity was measured as SERT/DAT. The class given is protein assay.
For assay [2], the target named is Sodium-dependent serotonin transporter (Rattus norvegicus, UniProt P31652). The assay is described as follows: Binding affinity was evaluated by measuring inhibiting the binding of [3H]citalopram to Serotonin transporter in rat brain tissue. The assay is classed as tissue-based.
Sodium-dependent serotonin transporter, sequence (P31652 whole entry): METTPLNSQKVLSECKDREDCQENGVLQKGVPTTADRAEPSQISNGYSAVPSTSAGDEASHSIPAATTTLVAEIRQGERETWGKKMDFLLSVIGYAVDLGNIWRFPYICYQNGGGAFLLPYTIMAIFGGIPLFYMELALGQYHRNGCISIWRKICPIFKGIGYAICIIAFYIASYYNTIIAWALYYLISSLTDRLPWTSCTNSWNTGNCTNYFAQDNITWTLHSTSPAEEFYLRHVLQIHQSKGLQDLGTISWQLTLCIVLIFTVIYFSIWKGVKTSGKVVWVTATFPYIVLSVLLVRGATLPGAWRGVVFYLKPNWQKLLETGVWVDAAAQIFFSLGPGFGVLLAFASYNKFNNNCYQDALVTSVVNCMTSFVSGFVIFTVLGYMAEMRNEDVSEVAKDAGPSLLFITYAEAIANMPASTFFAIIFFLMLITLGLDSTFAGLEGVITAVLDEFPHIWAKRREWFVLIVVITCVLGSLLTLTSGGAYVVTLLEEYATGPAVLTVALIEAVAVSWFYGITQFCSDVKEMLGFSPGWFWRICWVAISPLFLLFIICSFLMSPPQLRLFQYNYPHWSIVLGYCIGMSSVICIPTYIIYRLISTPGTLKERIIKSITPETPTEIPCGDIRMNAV
The target of assay [3] is Sodium-dependent dopamine transporter (Rattus norvegicus, UniProt P23977). The assay is described as follows: Binding affinity was evaluated by measuring the inhibition of [3H]WIN-35428 binding to Dopamine transporter in rat brain tissue. The class given is tissue-based.
Sodium-dependent dopamine transporter, sequence (P23977 whole entry): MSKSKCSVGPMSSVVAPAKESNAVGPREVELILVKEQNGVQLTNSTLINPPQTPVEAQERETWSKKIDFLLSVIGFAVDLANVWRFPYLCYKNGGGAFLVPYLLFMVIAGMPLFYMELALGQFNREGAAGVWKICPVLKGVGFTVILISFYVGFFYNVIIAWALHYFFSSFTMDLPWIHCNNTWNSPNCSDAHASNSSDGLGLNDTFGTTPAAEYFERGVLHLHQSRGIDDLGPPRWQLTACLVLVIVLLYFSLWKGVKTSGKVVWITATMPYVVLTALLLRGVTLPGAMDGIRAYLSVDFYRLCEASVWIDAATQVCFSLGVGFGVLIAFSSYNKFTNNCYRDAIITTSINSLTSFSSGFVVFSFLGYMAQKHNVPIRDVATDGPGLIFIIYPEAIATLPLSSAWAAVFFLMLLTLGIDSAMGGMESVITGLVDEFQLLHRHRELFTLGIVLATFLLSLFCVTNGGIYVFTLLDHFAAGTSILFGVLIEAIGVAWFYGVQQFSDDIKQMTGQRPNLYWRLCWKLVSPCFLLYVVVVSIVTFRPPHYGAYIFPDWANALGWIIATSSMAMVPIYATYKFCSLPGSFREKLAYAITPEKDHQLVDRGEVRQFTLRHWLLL
Assay [4] has as its target Norepinephrine transporter (Rattus norvegicus, UniProt Q9WTR4). The assay is described as follows: Binding affinity was evaluated by measuring inhibiting the binding of [3H]nisoxetine to Norepinephrine transporter in rat brain tissue. The assay is classed as tissue-based.
The species entered for a further assay is Rattus norvegicus. The assay is described as follows: Inhibition of [3H]dopamine reuptake in rat […]. The class given is functional.

SMILES strings stand for the structures.

Monoamine transporters; serotonin & dopamine (Homo sapiens), sequence (P31645 whole entry, looked up): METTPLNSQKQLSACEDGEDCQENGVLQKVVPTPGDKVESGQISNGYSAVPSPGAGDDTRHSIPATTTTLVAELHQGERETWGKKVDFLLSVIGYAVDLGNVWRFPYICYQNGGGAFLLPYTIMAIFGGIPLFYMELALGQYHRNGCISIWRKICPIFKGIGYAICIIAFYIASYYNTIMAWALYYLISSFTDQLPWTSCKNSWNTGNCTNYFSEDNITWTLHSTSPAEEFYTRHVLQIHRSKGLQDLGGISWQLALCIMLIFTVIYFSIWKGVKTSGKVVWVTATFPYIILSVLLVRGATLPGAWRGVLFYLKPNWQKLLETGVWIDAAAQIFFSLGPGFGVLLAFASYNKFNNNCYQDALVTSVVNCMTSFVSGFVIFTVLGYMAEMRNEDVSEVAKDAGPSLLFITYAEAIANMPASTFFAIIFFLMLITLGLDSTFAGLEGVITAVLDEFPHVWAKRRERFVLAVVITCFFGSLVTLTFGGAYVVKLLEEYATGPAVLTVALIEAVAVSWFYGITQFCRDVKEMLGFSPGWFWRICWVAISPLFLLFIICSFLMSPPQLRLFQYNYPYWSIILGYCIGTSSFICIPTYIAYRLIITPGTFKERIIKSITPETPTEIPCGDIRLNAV
Monoamine transporters; serotonin & dopamine (Homo sapiens), sequence (Q01959 whole entry, looked up): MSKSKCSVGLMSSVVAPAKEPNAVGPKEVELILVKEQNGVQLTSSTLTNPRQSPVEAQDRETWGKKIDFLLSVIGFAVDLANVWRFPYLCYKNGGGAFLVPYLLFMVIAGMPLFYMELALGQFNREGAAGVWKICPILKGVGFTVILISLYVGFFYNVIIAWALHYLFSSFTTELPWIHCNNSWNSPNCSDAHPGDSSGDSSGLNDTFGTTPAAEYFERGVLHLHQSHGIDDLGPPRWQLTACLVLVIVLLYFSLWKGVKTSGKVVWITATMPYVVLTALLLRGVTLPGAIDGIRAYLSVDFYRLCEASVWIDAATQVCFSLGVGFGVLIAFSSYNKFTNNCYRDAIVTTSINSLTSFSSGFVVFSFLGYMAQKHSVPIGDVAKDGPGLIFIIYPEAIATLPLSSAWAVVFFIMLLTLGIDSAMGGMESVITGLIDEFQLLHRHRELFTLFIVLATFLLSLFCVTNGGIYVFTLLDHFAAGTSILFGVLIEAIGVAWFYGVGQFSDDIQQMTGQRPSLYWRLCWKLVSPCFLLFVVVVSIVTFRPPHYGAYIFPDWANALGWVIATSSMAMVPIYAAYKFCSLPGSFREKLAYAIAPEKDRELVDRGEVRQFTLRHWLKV
Norepinephrine transporter, sequence (Q9WTR4 whole entry): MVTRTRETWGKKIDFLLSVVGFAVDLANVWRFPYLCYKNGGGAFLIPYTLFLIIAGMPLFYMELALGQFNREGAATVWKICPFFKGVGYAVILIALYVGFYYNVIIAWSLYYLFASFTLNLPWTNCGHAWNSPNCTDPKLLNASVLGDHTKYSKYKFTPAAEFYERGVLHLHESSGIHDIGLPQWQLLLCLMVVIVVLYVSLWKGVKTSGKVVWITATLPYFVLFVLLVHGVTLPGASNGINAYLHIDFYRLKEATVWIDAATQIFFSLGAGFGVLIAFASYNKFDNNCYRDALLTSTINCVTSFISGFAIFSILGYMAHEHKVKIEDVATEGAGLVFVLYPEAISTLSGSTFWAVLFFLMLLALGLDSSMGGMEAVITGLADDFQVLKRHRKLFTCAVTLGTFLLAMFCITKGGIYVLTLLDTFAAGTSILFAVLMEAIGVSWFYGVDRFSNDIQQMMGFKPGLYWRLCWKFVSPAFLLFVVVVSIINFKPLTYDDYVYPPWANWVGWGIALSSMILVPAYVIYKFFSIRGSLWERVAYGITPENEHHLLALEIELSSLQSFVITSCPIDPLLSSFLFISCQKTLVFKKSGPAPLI

`Fc1ccc(CNC2CCC(C(c3ccccc3)c3ccccc3)NC2)cc1` (cis isomer) [listing 1 of 2 here] showed a Selectivity in assay [1] of 93.7.

As for `O=C(NC1CCC(C(c2ccccc2)c2ccccc2)NC1)c1ccc(F)cc1` (racemic), the concentration for half-maximal inhibition (IC50) (in general, the concentration needed to halve the response being measured) in assay [2] was 6210 nM; in assay [3], 87 nM; in assay [4] it was 5610 nM. In assay [1], this compound gave a Selectivity of 71.4.

The compound `COC(=O)[C@@H]1C2CC[C@@H](C[C@@H]1OC(=O)c1ccccc1)N2C` (single isomer, unassigned) [COCAINE] yielded a half-maximal inhibitory concentration (IC50) in the assay filed under Rattus norvegicus (Rattus norvegicus) of 191 nM.

For the compound `Fc1ccc(CNC2CCC(C(c3ccccc3)c3ccccc3)NC2)cc1` (stereo in doubt) [listing 1 of 2 here], the IC50 in assay [2] is 1330 nM; in assay [3] it was 21.2 nM; in assay [4] it was 4470 nM; in the assay listed under Rattus norvegicus it was 106 nM.

Turning to `Fc1ccc(CNC2CCC(C(c3ccccc3)c3ccccc3)NC2)cc1` (cis isomer) [listing 2 of 2 here], the IC50 stood at 2810 nM in assay [2], 1350 nM in assay [4] and 28.9 nM in the assay filed under Rattus norvegicus.

`Fc1ccc(CN2CCC(CNCC(c3ccccc3)c3ccccc3)CC2)cc1` registered a Selectivity in assay [1] of 6.9.

The compound `Fc1ccc(CNC2CCC(C(c3ccccc3)c3ccccc3)NC2)cc1` (stereo in doubt) [listing 2 of 2 here] showed a Selectivity in assay [1] of 6.28.
